Experimental data as given in US20250049938A1, “ANTIBODY-DRUG CONJUGATE AND USE THEREOF” (priority 2021, published 2025).
Starred links: 1 amine or outer side, 2 acyl side, 3 side chain; linkers in the order of their positions; H or OH if unused. Non-standard residues stand in square brackets, D forms with d. Residues, ends and D or L forms follow the SMILES beside them. *: point of attachment. Exatecan = CC[C@@]1(O)C(=O)OCc2c1cc1n(c2=O)Cc2c-1nc1cc(F)c(C)c3c1c2[C@@H](N*)CC3; Hexanoyl(6-maleimido) = O=C1C=CC(=O)N1CCCCCC(=O)*; NHCH2OCH2CO = O=C(COCN[*:1])[*:2]

test system: human colon cancer SW620 cells; experiment: In vitro killing of human colon cancer SW620 cells (CellTiter-Glo); type: cell-based; details: FIG. 2B; 2-fold dilutions from 400 nM, 9 concentrations; culturing 4 days and 6 days
Description: Human colon cancer SW620 cells in the logarithmic growth phase were digested with pancreatin, and subsequently resuspended in a corresponding culture medium, with the density adjusted to be 2×10^4 cells/mL. The cells were seeded into a 96-well microplate at 100 μL/well, allowing for a density of 2×10^3 cells/well, and 200 μL of the culture medium was added to each of the rest wells. After culturing for 48 h at 37° C., 5% CO2, the supernatant was pipetted from the cell culture plate. The linker-drugs (04-Dxd, 07-Dxd, 08-Dxd, and 09-Dxd), HER3 ADCs (HER3-ADC04, HER3-ADC07, HER3-ADC08, and HER3-ADC09), and a monoclonal antibody control were diluted in a 2-fold gradient with the culture medium, starting from the initial concentration of 400 nM, to obtain a total of 9 concentration gradients. The diluted samples were added at 100 μL/well. After further culturing for 4 days and 6 days, color development was carried out. The cell plate was taken out and equilibrated for 15-20 min at room temperature, and subsequently 100 μL of CellTiter-Glo® Luminescent Cell Viability assay buffer (purchased from Promega) was added. The plate was shaken for 2 min on a shaker at 200 rpm, kept for 18 min in the dark, and read using an M5 microplate reader.
followed by plotting through four-parameter fitting, with the logarithm of the concentration as the abscissa and the killing rate as the ordinate.

| Structure (SMILES) | in vitro killing effect of linker-Dxd drugs on SW620 cells |
| --- | --- |
| CC[C@@]1(O)C(=O)OCc2c1cc1n(c2=O)Cc2c-1nc1cc(F)c(C)c3c1c2[C@@H](NC(=O)COCNC(=O)CNC(=O)[C@H](Cc1ccccc1)NC(=O)CNC(=O)CNC(=O)CCCCCN1C(=O)C=CC1=O)CC3 [04-Dxd, reference compound] ({Hexanoyl(6-maleimido)}-GGFG[NHCH2OCH2CO]-Exatecan) | killing effect |
| CC[C@@]1(O)C(=O)OCc2c1cc1n(c2=O)Cc2c-1nc1cc(F)c(C)c3c1c2[C@@H](NC(=O)COCNC(=O)CNC(=O)[C@H](Cc1ccccc1)NC(=O)CNC(=O)[C@H](CO)NC(=O)[C@H](CO)NC(=O)[C@H](C)NC(=O)[C@@H](NC(=O)CCCCCN1C(=O)C=CC1=O)C(C)C)CC3 [09-Dxd] ({Hexanoyl(6-maleimido)}-VASSGFG[NHCH2OCH2CO]-Exatecan) | significantly better killing effect than 04-Dxd |
| CC[C@@]1(O)C(=O)OCc2c1cc1n(c2=O)Cc2c-1nc1cc(F)c(C)c3c1c2[C@@H](NC(=O)COCNC(=O)CNC(=O)[C@H](Cc1ccccc1)NC(=O)CNC(=O)[C@H](CO)NC(=O)[C@H](C)NC(=O)[C@@H](NC(=O)CCCCCN1C(=O)C=CC1=O)C(C)C)CC3 [08-Dxd] ({Hexanoyl(6-maleimido)}-VASGFG[NHCH2OCH2CO]-Exatecan) | significantly better killing effect than 04-Dxd |
| CC[C@@]1(O)C(=O)OCc2c1cc1n(c2=O)Cc2c-1nc1cc(F)c(C)c3c1c2[C@@H](NC(=O)COCNC(=O)CNC(=O)[C@H](Cc1ccccc1)NC(=O)CNC(=O)[C@H](C)NC(=O)[C@@H](NC(=O)CCCCCN1C(=O)C=CC1=O)C(C)C)CC3 [07-Dxd] ({Hexanoyl(6-maleimido)}-VAGFG[NHCH2OCH2CO]-Exatecan) | significantly better killing effect than 04-Dxd |
